The values below come from article PMC6668147, “Ancient role of vasopressin/oxytocin-type neuropeptides as regulators of feeding revealed in an echinoderm” (BMC Biology, 2019).

“Also recorded” adds a separate entry of the source. Where two headings read alike, the source gives them in different places.

Assay [1] deals with A. rubens VP/OT-type receptor. The experiment in a line: Ca2+-induced luminescence in CHO-K1/G5A cells expressing the A. rubens VP/OT-type receptor and Gα16. The class given is cell-based, Asterias rubens. The following applies: 10^−4 M; Wilcoxon signed-rank test vs basal media; n = 9. The text has this:
A pBluescript SKII (+) vector containing the A. rubens VP/OT-type receptor cDNA as an insert (see above) was used as a template to amplify by PCR the open reading frame of the VP/OT-type receptor. To accomplish this, the oligonucleotides 5′-ggatccCACCATGACGCCCTC-3′ (upstream) and 5′-cccgggCTACATGTGAGCGGAAGCA-3′ (downstream) were used as primers and the PCR product was subcloned into the eukaryotic expression vector pcDNA 3.1+, which had been cut with the restriction enzymes BamHI and […]. For the upstream primer, a partial Kozak translation initiation sequence (CACC) was introduced before the start codon to optimise the initiation of translation.
For this assay, Chinese hamster ovary (CHO-K1) cells stably expressing the Ca^2+-sensitive bioluminescent GFP-aequorin fusion protein—G5A (CHO-K1/G5A cells) are co-transfected with plasmids containing a G-protein coupled receptor cDNA insert and plasmids containing an insert encoding the promiscuous G-protein Gα16. If a candidate ligand activates the expressed receptor, the promiscuous Gα16 protein triggers the activation of the IP3 signalling pathway, causing an increase in intracellular Ca^2+ and luminescence. […] Asterotocin at concentrations ranging from 10^−4 to 10^−12 M (n = 3) was pipetted into the wells of clear-bottomed 96-well plates (Sigma-Aldrich), then a FLUOstar Omega Plate Reader (BMG LABTECH) was used to inject a fixed amount of transfected CHO-K1 cells into each well sequentially, and luminescence was measured for a 35-s period after injection. Luminescence measurements were normalised to the maximum response obtained in each experiment (100%) and the response obtained with the vehicle media (0%). […] The half maximal effective concentration (EC50) was calculated from the dose-response curve in Prism 6.0c. […] A Wilcoxon signed-rank test was performed to compare luminescence of cells exposed to asterotocin, vasopressin, oxytocin and NGFFYamide (at 10^−4 M) with luminescence of cells in basal media (control).

Assay [2] deals with A. rubens. Put plainly: Righting behaviour following 4-week starvation. The class given is in vivo, Asterias rubens. The method, then: To examine the specificity of the effects of asterotocin on starfish righting behaviour, an experiment was performed where the righting time of starfish (5.5–9.6 cm in diameter; starved for 4 weeks prior to testing) was measured before injection (n = 60; pooled from the three treatment groups) and after injection with 5 μl 10^−3 M asterotocin (n = 20) or 5 μl 10^−3 M S2 (n = 20) or 5 μl distilled water (n = 20). The time taken to right in seconds as well as the percentage difference between righting with and without injection was calculated. The percentage time difference between righting with and without injection in water-injected, asterotocin-injected and S2-injected animals was determined and plotted as a separated box and whiskers graph in Prism 6 (GraphPad 6). The effect of neuropeptides on righting behaviour was analysed statistically using the Mann-Whitney U test or a one-way ANOVA test with a post hoc Dunnett’s multiple comparisons test.

Assay [3] relates to cardiac stomach preparations from A. rubens. The experiment in a line: Relaxation of in vitro cardiac stomach preparations. The arrangement: species or system Asterias rubens. The settings on record: 10^−7 M, KCl pre-contraction. The method, then:
To investigate if asterotocin affects muscle contractility in A. rubens, synthetic asterotocin (custom synthesised by PPR Ltd., Fareham, Hampshire, UK) was tested on three in vitro preparations: the cardiac stomach, apical muscle and tube feet. These three preparations have been used to examine the effects of other neuropeptides, and the methods employed have been described in detail previously. […] Therefore, the effects of asterotocin on cardiac stomach and apical muscle preparations were examined in more detail.
Cardiac stomach preparations from 16 starfish (8–13.5 cm in diameter) were incubated at 11 °C in an aerated organ bath containing artificial seawater with 3 × 10^−2 M added KCl. This induces sustained contraction of the cardiac stomach, which facilitates recording of the effects of neuropeptides that act as muscle relaxants. The contractile state of preparations was monitored using a high-grade isotonic transducer (model 60-3001; Harvard Apparatus, Cambridge, UK) connected to a Goerz SE 120 chart recorder (Recorderlab, Sutton, Surrey, UK) or using a high-grade isotonic transducer (MLT0015; ADInstruments Ltd., Oxford, UK) connected to data acquisition hardware (PowerLab 2/26, ADInstruments Ltd.) via a bridge amplifier (FE221 Bridge Amp, ADInstruments Ltd.). The output from the PowerLab was recorded using LabChart (v8.0.7) software installed on a laptop computer (Lenovo E540, Windows 7 Professional). To obtain representative images of the effects of asterotocin, traces were exported from LabChart into Adobe Photoshop and the function ‘Select and Mask’ was utilised to remove the background grid pattern.
The percentage relaxation at each concentration was calculated relative to the maximal relaxing effect produced by asterotocin in each preparation. […] For these experiments, the effect of 10^−7 M S2 was defined as 100%, and the effect of 10^−7 M asterotocin was calculated as a percentage of the effect of 10^−7 M S2. The relaxing effects of asterotocin and S2 on cardiac stomach preparations were analysed statistically using the Mann-Whitney U test.

The test system of assay [4] is A. rubens. The settings on record: cited from earlier work. From the text:
Starfish feed by firstly prying apart the bivalve shells of prey (e.g. mussels) with their tube feet and then […] cardiac stomach out of their mouth and over the exposed digestible soft tissues. In order for the cardiac stomach to be everted, it must be in a relaxed state, and therefore, neuropeptides that cause cardiac stomach relaxation in vitro are potential mediators of eversion in vivo.

For assay [5], the system named is cardiac stomach preparations from A. rubens. The settings on record: in vitro; cited from earlier work. The protocol:
Therefore, it was of interest here to investigate the effects of asterotocin on muscle preparations from A. rubens. […] The percentage relaxation at each concentration was calculated relative to the maximal relaxing effect produced by asterotocin in each preparation. To enable the assessment of the magnitude of the relaxing effect of asterotocin on cardiac stomach, experiments were performed to compare the effect asterotocin with the effect of the neuropeptide SALMFamide-2 (S2; […]-NH2), which has been shown previously to cause relax ...

Assay [6] has as its system A. rubens. The experiment in a line: Body posture / arm flexion after injection. The class given is in vivo, Asterias rubens. The settings on record: S2, compared with asterotocin.
The subject of assay [7] is A. rubens. Put plainly: In vivo cardiac stomach eversion, dose dependence. The arrangement: species or system Asterias rubens. The settings on record: 10 μl of 10^−3 M S2 into perivisceral coelom; n = 5. The protocol: During feeding in A. rubens, the cardiac stomach is everted out of the mouth over the digestible soft tissue of prey (e.g. mussels), and to accomplish this, the cardiac stomach must be relaxed. […] First, a pilot experiment was performed using 30 starfish (diameter 6.4–7.5 cm) that had been starved for 1 week to normalise their physiological status. Then animals were injected with different doses of asterotocin (10 μl of 10^−6–10^−3 M; n = 5 for each dose) or with 10 μl of water (negative control; n = 5) or with 10 μl of 10^−3 M S2 (positive control; n = 5). The animals were injected at a site located in the aboral body wall of an arm proximal to the junction with the central disc and adjacent to the madreporite. Care was taken to ensure that the tip of a Hamilton syringe used for injections was pushed through the body wall into the perivisceral coelom but not too deep so as to avoid injecting into the digestive organs. The doses of asterotocin injected were informed by our analysis of the volume of the perivisceral coelomic fluid in A. rubens. […] Following injection, the starfish were placed in a glass vessel containing seawater so that the mouth of the animal could be observed from below.

For a further assay, the system named is octopus rectum. The settings on record: in vitro; cited from earlier work. From the text: What about in the protostome branch of the Bilateria? […] In the cephalopod mollusc Octopus vulgaris, the VP/OT-type signalling system has been characterised in detail and comprises two VP/OT-type neuropeptides, octopressin (OP) and cephalotocin (CT), and three cognate receptors (OPR, CTR1, CTR2). Furthermore, OP is expressed in the regions of the octopus nervous system involved in the control o ...

For a further assay, the system named is insects. The following applies: cited from earlier work. The text has this:
Thus, the evolutionary origin of at least 30 neuropeptide families (including VP/OT-type) can be traced back to the bilaterian common ancestor of deuterostomes (vertebrates and invertebrate chordates, hemichordates, echinoderms) and protostomes (e.g. arthropods, nematodes, molluscs, annelids). Definitive evidence of the antiquity of VP/OT-type neuropeptides was first obtained with the purification and sequencing of VP/OT-type neuropeptides from insect and molluscan species [[8], ...

Assay [8] deals with mammals. The settings on record: cited from earlier work. From the text:
Physiological processes and behaviour are controlled and regulated by a huge variety of neuronally secreted peptide signalling molecules (neuropeptides), which typically exert their effects on target cells by binding to cognate G-protein coupled receptors (GPCRs). Amongst the most intensely studied neuropeptides are vasopressin (VP) and oxytocin (OT). VP and OT are structurally related neuropeptides that were originally discovered based on their peripheral actions as pituitary hormones in mammals. VP is a cyclic and amidated nonapeptide (CYFQNCPRG-NH2; with a disulphide bridge betwee ...

For assay [9], the system named is mammals. The settings on record: cited from earlier work. The text has this:
Our discovery that asterotocin has such striking feeding-related effects in starfish provides a basis to examine if VP/OT-type neuropeptides are likewise involved in the regulation of feeding-associated processes in other taxa. Currently, little is known about the physiological roles of VP/OT-type neuropeptides in other echinoderms. […] This effect of echinotocin as a muscle contractant is consistent with the myoexcitatory eff ...
This is another data set of the same source.

For the substance NGFFYamide, in assay [1], the “receptor activation at highest concentration tested, in words” value (“receptor activation” below) was “did not cause significant receptor activation; also recorded: not significantly higher than the basal media control”.

Take “SGPYSFNSGLTF-NH2 [S2, SALMFamide neuropeptide S2 (…-NH2)]”: the “significance of righting time vs water-injected, in words” value in the assay with A. rubens [2] (5 μl of 10^−3 M S2, n = 20) is “not significantly different”. Moreover, the mean righting time in the assay with A. rubens [2] (5 μl of 10^−3 M, mean ± SEM, n = 20, water 341 ± 59 s, non-injected 345 ± 35 s) was determined as 312 ± 40 s. Also, the “mean percentage righting time difference with vs without injection” value in the assay with A. rubens [2] (5 μl of 10^−3 M, n = 20, water − 1.8 ± 13%) is 15 ± 12%. The “relaxing effect, S2 effect defined as 100%” value in [3] (replicate 1), in assay [3] (replicate 2), in [3] (replicate 3), in assay [3] (replicate 4) and in assay [3] (replicate 5) was 100% throughout. Moreover, the “cardiac stomach eversion, in words (earlier work)” value with A. rubens [4] (100 μl of 10^−3 M into perivisceral coelom) is “triggers cardiac stomach eversion”; with A. rubens [4] (injected in vivo) it was “induces cardiac stomach eversion when injected in vivo”. Besides, in assay [5], the “effect on cardiac stomach preparations, in words” value was “acts as a relaxant of cardiac stomach preparations; also recorded: cause relaxation of A. rubens cardiac stomach preparations in vitro”. For the same substance, the “posture change, in words” value in the assay with A. rubens [6] is “does not induce the changes in posture”. In the assay on A. rubens [7], the “cardiac stomach eversion, in words” value was “cardiac stomach eversion was not observed; also recorded: stomach eversion was not observed in any of the animals”.

With octopressin, in the assay on octopus rectum, the “effect on rectum, in words” value was “myoexcitatory effects on in vitro preparations of the octopus rectum”.

With inotocin, the “role in urine production, in words” value in the assay on insects is “VP-like role in regulating urine production”.

For the substance “CYFQNCPRG-NH2 (disulfide) [vasopressin, human vasopressin; cyclic amidated nonapeptide (…-NH2)]”, in the assay on mammals [8], the “blood pressure, in words” value is given as “increases blood pressure” and the “diuresis, in words” value is “acts as an antidiuretic”. The “receptor activation” value in assay [1] is given as “did not cause significant receptor activation; also recorded: not significantly higher than the basal media control”.

As to “CYIQNCPLG-NH2 (disulfide) [oxytocin, human oxytocin (…-NH2)]”, in the assay on mammals [8], the “uterine contraction and lactation, in words” value was “causes uterine contraction and lactation”. For the same substance, in the assay with mammals [9], the “effect on feeding, in words” value is given as “inhibits feeding”. Further, the “receptor activation” value in assay [1] is “did not cause significant receptor activation; also recorded: not significantly higher than the basal media control”.
